# In PubChem BioAssay AID743136 (Broad Institute, 2013):
# Where “and” joins values, the source holds several entries; their conditions need not be identical. Identical values can stand only once. Calls of active or inactive are those of the source.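 How the source made its calls: active means valid fitted curve with falling viability signal and AC50 at most twice the top tested concentration; inconclusive means flat curve with 30 to 70% signal loss, or poor fit; inactive means the rest, including opposite-direction effects.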
# Experiments:
# [1] = HepG2 cell cytotoxicity, dose response, cytotoxicity control, ATP luminescence, dry powder, Set2, 50 µM top (AID 743136); settings: HepG2 viability, CellTiter-Glo ATP luminescence, 72 h
# [2] = tested on: HepG2 viability, CellTiter-Glo ATP luminescence, 72 h; assay: as above
Compound,"activity change, negative = cytotoxicity ([1]; at 50 µM (top of the series))",also measured
Cc1c(C(=O)O)sc2nc(/C=C/c3ccc4[nH]ccc4c3)[nH]c(=O)c12,1.56% (inactive),
COc1cccc(/C=C/c2nc3sc(C(=O)O)c(C)c3c(=O)[nH]2)c1,-15.1% (inactive),
Cc1c(C(=O)O)sc2nc(/C=C/c3cccc(N4CCOCC4)n3)[nH]c(=O)c12,-4.25% (inactive),
Cc1c(C(=O)O)sc2nc(/C=C/C=C/c3ccccc3)[nH]c(=O)c12,20.1% (inactive),
Cc1c(C(=O)O)sc2nc(/C=C/c3ccccc3O)[nH]c(=O)c12,-7.61% (inactive),
Cc1c(C(=O)O)sc2nc(/C=C/c3ccncc3)[nH]c(=O)c12,-2.2% (inactive),
Cc1c(C(=O)O)sc2nc(/C=C/c3cccc(N)c3)[nH]c(=O)c12,-6.41% (inactive),
Cc1c(C(=O)O)sc2nc(/C=C/c3cccc(OC(F)(F)F)c3)[nH]c(=O)c12,,AC50 [2]: > 100 µM (inactive)
Cc1c(C(=O)O)sc2nc(CCc3cccc(O)c3)[nH]c(=O)c12,-14.1% (inactive),
Cc1c(C(=O)O)sc2nc(/C=C/c3cccc(N4CCNCC4)c3)[nH]c(=O)c12,-21% (inactive),
Cc1c(C(=O)O)sc2nc(/C=C/c3cccc(C(=O)O)c3)[nH]c(=O)c12,-5.9% (inactive),
Cc1c(C(=O)O)sc2nc(/C=C/c3cccc(C(F)(F)F)c3)[nH]c(=O)c12,-10.9% (inactive),
Cc1c(C(=O)O)sc2nc(/C=C/c3cc4ccccc4cn3)[nH]c(=O)c12,-5.12% (inactive),
Cc1c(C(=O)O)sc2nc(/C=C/c3ccc4ccccc4c3)[nH]c(=O)c12,-8.19% (inactive),
Cc1c(C(=O)O)sc2nc(/C=C/c3cccc(=O)[nH]3)[nH]c(=O)c12,-1.32% (inactive),
Cc1c(C(=O)O)sc2nc(/C=C/c3cccnc3)[nH]c(=O)c12,-15.4% (inactive),
Cc1c(C(=O)O)sc2nc(/C=C/c3cccnc3N)[nH]c(=O)c12,,AC50 [2]: > 24 µM (inactive)
Cc1c(C(=O)O)sc2nc(/C=C/c3ccc4cc[nH]c4c3)[nH]c(=O)c12,-21% (inactive),
Cc1c(C(=O)O)sc2nc(/C=C/c3cccc(F)c3)[nH]c(=O)c12,-10.3% (inactive),
Cc1c(C(=O)O)sc2nc(/C=C/c3ccc4[nH]ccc4n3)[nH]c(=O)c12,,"activity change, negative = cytotoxicity ([1]; at 12 µM (top of the series)): 2.05% (inactive)"
Cc1c(C(=O)O)sc2nc(/C=C/c3cccc([N+](=O)[O-])c3)[nH]c(=O)c12,-30.8% (inactive),
Cc1c(C(=O)O)sc2nc(/C=C/c3ccc(O)cn3)[nH]c(=O)c12,,"activity change, negative = cytotoxicity ([1]; at 1.2 µM (top of the series)): -0.612% (inactive)"
Cc1c(C(=O)O)sc2nc(/C=C/c3ccnc4ccccc34)[nH]c(=O)c12,-5.63% (inactive),
Cc1c(C(=O)O)sc2nc(/C=C/c3ccc(N)nc3)[nH]c(=O)c12,-9.16% (inactive),
Cc1c(C(=O)O)sc2nc(/C=C/c3ccccn3)[nH]c(=O)c12,-16.2% (inactive),
Cc1c(C(=O)O)sc2nc(/C=C/c3cnc4ccccc4c3)[nH]c(=O)c12,-18.5% (inactive),
Cc1c(C(=O)O)sc2nc(/C=C/c3cccc(C(N)=O)c3)[nH]c(=O)c12,-16.7% (inactive),
Cc1c(C(=O)O)sc2nc(/C=C/C3CC3)[nH]c(=O)c12,-1.5% (inactive),
Cc1c(C(=O)O)sc2nc(/C=C/c3cccc(O)c3)[nH]c(=O)c12,-10.4% (inactive) and -7.42% (inactive),"activity change, negative = cytotoxicity ([1]; at 46 µM (top of the series)): 1.28% (inactive)"
Cc1c(C(=O)O)sc2nc(/C=C/c3ccccc3)[nH]c(=O)c12,-17.2% (inactive),
